The results in this text go back to patent publication US12509461B2, “Enhanced performance of amorphous solid and solubilized formulations for achieving therapeutic plasma concentrations” (BRISTOL-MYERS SQUIBB COMPANY, priority 2019, dated 2025).

The nature of series [1]: Aqueous solubility and ionization of Compound (I). It counts as physicochemical. The source says:
[drawing 2] and is referred to herein as “Compound (I)”. Compound (I), a process to prepare Compound (I), and methods of treatment employing Compound (I) are disclosed in U.S. Patent Application Publication No. 2016/0096839, which is assigned to the present assignee and incorporated herein by reference in its entirety. […] These characteristics of Compound (I) render it difficult to formulate for oral administration to achieve therapeutically effective blood levels.

Series [2] is described as follows: Microcentrifuge dissolution test in 0.5% SIF in PBS pH 6.5. In kind it is physicochemical. As to conditions: control; 1000 μg/mL if all of drug had dissolved. The protocol: Microcentrifuge dissolution tests were performed in a 37° C. temperature-controlled box. Weighed 1 mg of sample into each of two 2.0 mL Sorenson microcentrifuge tubes. Added 1.8 mL of 0.5% SIF in phosphate buffered saline (PBS) (pH 6.5) to each tube and started the timer. Vortexed the samples for 1 minute on Setting 8 on a Fisher Vortex Genie 2. Centrifuged the samples for 1 minute at 13,000 rpm using an IEC Micromax microcentrifuge. When the timer reads 4 minutes, extracted 50 μL of supernatant from each microcentrifuge tube into a HPLC vial containing 250 μL of diluent (HPLC-grade 95:5 THF:Water). Vortexed the mixtures for 25 seconds. Repeated the steps for following time points: 10, 20, 40, and 90 minutes, and again at 20 hours.
Analyzed the samples by HPLC using the method below:
As a control, crystalline Compound (I) alone was evaluated using the same procedure. A sufficient amount of material was added so that the concentration of Compound (I) would have been 1000 μg/mL, if all of drug had dissolved.
The concentrations of Compound (I) obtained in these samples were used to determine the maximum dissolved concentration of Compound (I) in solution during the first ninety minutes of the test (MDC90), the area under the concentration-versus-time curve during the initial ninety minutes (AUC90).

In the case of `C[C@@H]1CCC[C@H](n2cnc(-c3cc(Cl)ccc3-n3cc(Cl)nn3)cc2=O)c2cc(ccn2)-c2c(cnn2C(F)F)NC1=O` [Compound (I), (9R,13S)-13-{4-[5-chloro-2-(4-chloro-1H-1,2,3-triazol-1-yl)phenyl]-6-oxo-1,6-dihydropyrimidin-1-yl}-3-(difluoromethyl)-9-methyl-3,4,7,15-tetraazatricyclo[12.3.1.0^2,6]octadeca-1(18),2(6),4,14,16-pentaen-8-one], the ionization result in series [1] (physiologically relevant region) was “non-ionizable”. Moreover, the aqueous solubility result in series [1] (room temperature) is listed as “low aqueous solubility”.
Regarding `C[C@@H]1CCC[C@H](n2cnc(-c3cc(Cl)ccc3-n3cc(Cl)nn3)cc2=O)c2cc(ccn2)-c2c(cnn2C(F)F)NC1=O` [Crystalline API, (9R,13S)-13-{4-[5-chloro-2-(4-chloro-1H-1,2,3-triazol-1-yl)phenyl]-6-oxo-1,6-dihydropyrimidin-1-yl}-3-(difluoromethyl)-9-methyl-3,4,7,15-tetraazatricyclo[12.3.1.0^2,6]octadeca-1(18),2(6),4,14,16-pentaen-8-one], in series [2], the AUC90 is 1810 µg/mL and the Cmax90 is 26000 ng/mL.
